Measurements as given in US11358962B2, “2-hetaryl imidazol[1,2-a]pyridine derivatives” (Hoffmann-La Roche Inc., priority 2013, dated 2022).
Where a name gives a salt, the structure may show the parent alone.

Key:
tau aggregates = test: Autoradiography of tritiated radioligands on human cortical brain sections (Braak V AD patient); assay type: binding; settings: radioligand 1.8 (ex. 62), 2.8 (ex. 64), 3.7 (ex. 61), 2.7 nM (ex. 63)
Procedure: The radioligand concentrations were 1.8, 2.8, 3.7 and 2.7 nM, respectively.

native tau aggregates = test: TAU radioligand in vitro displacement assay ([3H]T808, autoradiography on human AD brain sections); assay type: binding; settings: compound 10 nM, radioligand [3H]T808 10 nM
Procedure, shortened: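 Displacement of 10 nM [3H]T808 from 10 μm human AD brain cryosections by test compounds at various concentrations, 30 min at room temperature in 50 mM Tris pH 7.4, then cold washes. Autoradiography after 5-day exposure; specific binding = ROI signal minus white-matter signal, expressed as % displacement.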

SMILES | autoradiogram staining pattern (tau aggregates) | % displacement of [3H]T808 (10 nM) at 10 nM (native tau aggregates) [%]
[3H]CNc1ccn2cc(-c3ccc(OCF)cc3)nc2c1 [Example 61, [^3H]-[2-(4-Fluoromethoxy-phenyl)-imidazo[1,2-a]pyridin-7-yl]-methyl-amine] | punctate staining of tau aggregates in a layered distribution pattern | 
CNc1ccn2cc(-c3ccc(Br)cc3)nc2c1 [Example 114, N-[2-(4-Bromo-phenyl)-imidazo[1,2-a]pyridin-7-yl]-methyl-amine] |  | 33
CNc1ccn2cc(-c3ccc(C)o3)nc2c1 [Example 115, Methyl-[2-(5-methyl-furan-2-yl)-imidazo[1,2-a]pyridin-7-yl]-amine] |  | 58
CNc1ccn2cc(-c3cc4ccccc4o3)nc2c1 [Example 116, N-[2-(Benzofuran-2-yl)-imidazo[1,2-a]pyridin-7-yl]-methyl-amine] |  | 47
CNc1ccn2cc(-c3cc(C)nn3C)nc2c1 [Example 117, N-[2-(2,5-Dimethyl-2H-pyrazol-3-yl)-imidazo[1,2-a]pyridin-7-yl]-methyl-amine] |  | 18
CNc1ccn2cc(-c3ccc(N4CCCCC4)cc3)nc2c1 [Example 118, Methyl-[2-(4-piperidin-1-yl-phenyl)-imidazo[1,2-a]pyridin-7-yl]-amine] |  | 20
CNc1ccn2cc(-c3ccc4c(c3)NC(=O)CO4)nc2c1 [Example 119, 6-(7-Methylamino-imidazo[1,2-a]pyridin-2-yl)-4H-benzo[1,4]oxazin-3-one] |  | 46
CNc1ccn2cc(-c3ccccc3O)nc2c1 [Example 120, 2-(7-Methylamino-imidazo[1,2-a]pyridin-2-yl)-phenol] |  | 20
CNc1ccn2cc(-c3nc4ccccc4n3C)nc2c1 [Example 121, Methyl-[2-(1-methyl-1H-benzoimidazol-2-yl)-imidazo[1,2-a]pyridin-7-yl]-amine] |  | 19
CNc1ccn2cc(-c3cccc(C(=O)OC)c3)nc2c1 [Example 122, Methyl 3-[7-(methylamino)imidazo[1,2-a]pyridin-2-yl]benzoate] |  | 20
CNc1ccn2cc(-c3cccc(CO)c3)nc2c1 [Example 123, [3-[7-(Methylamino)imidazo[1,2-a]pyridin-2-yl]phenyl]methanol] |  | 23
FCCOc1ccc(-c2cn3ccc(NC4CC4)cc3n2)cc1 [Example 124, N-Cyclopropyl-2-[4-(2-fluoroethoxy)phenyl]imidazo[1,2-a]pyridin-7-amine] |  | 39
FCCCOc1ccc(-c2cn3ccc(N4CCC4)cc3n2)cc1 [Example 125, 7-(Azetidin-1-yl)-2-[4-(3-fluoropropoxy)phenyl]imidazo[1,2-a]pyridine] |  | 32
CNc1ccn2cc(-c3cccnc3)nc2c1 [Example 126, Methyl-(2-pyridin-3-yl-imidazo[1,2-a]pyridin-7-yl)-amine] |  | 12
CNc1ccn2cc(-c3ccc(Cl)s3)nc2c1 [Example 127, N-[2-(5-Chloro-thiophen-2-yl)-imidazo[1,2-a]pyridin-7-yl]-methyl-amine] |  | 26
CNc1ccn2cc(-c3cc(C)ccc3O)nc2c1 [Example 128, 4-Methyl-2-(7-methylamino-imidazo[1,2-a]pyridin-2-yl)-phenol] |  | 34
CNc1ccn2cc(-c3cnn(C)c3)nc2c1 [Example 129, Methyl-[2-(1-methyl-1H-pyrazol-4-yl)-imidazo[1,2-a]pyridin-7-yl]-amine] |  | 50
CNc1ccn2cc(-c3cccc(COC)c3)nc2c1 [Example 130, 2-[3-(Methoxymethyl)phenyl]-N-methyl-imidazo[1,2-a]pyridine-7-amine HCl adduct] |  | 40
CNc1ccn2cc(-c3ccc(NCCF)cc3)nc2c1 [Example 131, 2-(4-(2-fluoroethylamino)phenyl)-N-methylimidazo[1,2-a]pyridin-7-amine] |  | 43

SMILES | autoradiogram staining pattern (tau aggregates) | % displacement of [3H]T808 (10 nM) at 10 nM (native tau aggregates) [%]
COc1ccc(-c2cn3ccc(NCCCF)cc3n2)cc1 [Example 132, N-(3-fluoropropyl)-2-(4-methoxyphenyl)imidazo[1,2-a]pyridin-7-amine] |  | 38
CNc1ccn2cc(-c3cccc(OCF)c3)nc2c1 [Example 133, 2-(3-(fluoromethoxy)phenyl)-N-methylimidazo[1,2-a]pyridin-7-amine] |  | 40
COc1ccc(-c2cn3ccc(NC(C)CO)cc3n2)cc1 (stereo not shown) [Example 134, 2-(2-(4-methoxyphenyl)imidazo[1,2-a]pyridin-7-ylamino)propan-1-ol] |  | 21
COc1cc(-c2cn3ccc(NCCF)cc3n2)ccc1C [Example 135, N-(2-fluoroethyl)-2-(3-methoxy-4-methylphenyl)imidazo[1,2-a]pyridin-7-amine] |  | 14
CNc1ccn2cc(-c3cccc(SC)c3)nc2c1 [Example 136, N-methyl-2-(3-(methylthio)phenyl)imidazo[1,2-a]pyridin-7-amine] |  | 20
CNc1ccn2cc(-c3cccc(OCCF)c3)nc2c1 [Example 137, 2-(3-(2-fluoroethoxy)phenyl)-N-methylimidazo[1,2-a]pyridin-7-amine] |  | 41
COc1ccc(-c2cn3ccc(N4CC4C)cc3n2)cc1 (stereo not shown) [Example 138, 2-(4-methoxyphenyl)-7-(2-methylaziridin-1-yl)imidazo[1,2-a]pyridine] |  | 44
CNc1ccn2cc(-c3cccc(OCCCF)c3)nc2c1 [Example 139, 2-(3-(3-fluoropropoxy)phenyl)-N-methylimidazo[1,2-a]pyridin-7-amine] |  | 5
FCCOc1cccc(-c2cn3ccc(N4CCC4)cc3n2)c1 [Example 140, 7-(azetidin-1-yl)-2-(3-(2-fluoroethoxy)phenyl)imidazo[1,2-a]pyridine] |  | 23
CNc1ccn2cc(-c3ccc(N4CCC(F)CC4)cc3)nc2c1 [Example 141, 2-(4-(4-fluoropiperidin-1-yl)phenyl)-N-methylimidazo[1,2-a]pyridin-7-amine] |  | 35
COc1cc(-c2cn3ccc(NCCF)cc3n2)ccc1O [Example 142, 4-(7-(2-fluoroethylamino)imidazo[1,2-a]pyridin-2-yl)-2-methoxyphenol] |  | 11
FCCNc1ccn2cc(-c3ccc4c(c3)OCCO4)nc2c1 [Example 143, 2-(2,3-dihydrobenzo[b][1,4]dioxin-6-yl)-N-(2-fluoroethyl)imidazo[1,2-a]pyridin-7-amine] |  | 23
FCCOCCOc1ccc(-c2cn3ccc(N4CCC4)cc3n2)cc1 [Example 144, 7-(azetidin-1-yl)-2-(4-(2-(2-fluoroethoxy)ethoxy)phenyl)imidazo[1,2-a]pyridine] |  | 27
Oc1ccc(-c2cn3ccc(NCCF)cc3n2)cc1 [Example 145, 4-(7-(2-fluoroethylamino)imidazo[1,2-a]pyridin-2-yl)phenol] |  | 29
Oc1cccc(-c2cn3ccc(NCCF)cc3n2)c1 [Example 146, 3-(7-(2-fluoroethylamino)imidazo[1,2-a]pyridin-2-yl)phenol] |  | 33
FCCNc1ccn2cc(-c3ccc(N4CCOCC4)cc3)nc2c1 [Example 147, N-(2-Fluoroethyl)-2-(4-morpholin-4-ylphenyl)imidazo[1,2-a]pyridin-7-amine] |  | 23
FCCCOc1ccc(-c2cn3ccc(NC4CC4)cc3n2)cc1 [Example 148, N-Cyclopropyl-2-[4-(3-fluoropropoxy)phenyl]imidazo[1,2-a]pyridin-7-amine] |  | 20
FCCNc1ccn2cc(-c3ccco3)nc2c1 [Example 149, N-(2-Fluoroethyl)-2-(furan-2-yl)imidazo[1,2-a]pyridin-7-amine] |  | 23
